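Results reflect a 48-hour exposure of cells in 96-well plates to compound at five concentrations. At the GI50, growth is halved. TGI is the concentration that stops growth completely.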
How the values were obtained:
Assay in all cases: NCI tumour cell line growth inhibition, 48 h
MDA-MB-231 breast = test system: MDA-MB-231 breast
K-562 leukemia = test system: K-562 leukemia
SF-539 CNS = test system: SF-539 CNS
HS 578T breast = test system: HS 578T breast
TK-10 renal = test system: TK-10 renal
HOP-92 NSCLC = test system: HOP-92 NSCLC
SW-620 colon = test system: SW-620 colon
NCI-H460 lung = test system: NCI-H460 lung
HCT-116 colon = test system: HCT-116 colon
UACC-62 melanoma = test system: UACC-62 melanoma

Row | SMILES | TGI (MDA-MB-231 breast) | TGI (K-562 leukemia) | TGI (SF-539 CNS) | TGI (HS 578T breast) | TGI (TK-10 renal) | TGI (HOP-92 NSCLC) | TGI (SW-620 colon) | TGI (NCI-H460 lung) | TGI (HCT-116 colon) | TGI (UACC-62 melanoma) | GI50 (MDA-MB-231 breast) | GI50 (K-562 leukemia) | GI50 (SF-539 CNS) | GI50 (HS 578T breast) | GI50 (TK-10 renal) | GI50 (SW-620 colon) | GI50 (NCI-H460 lung) | GI50 (HCT-116 colon) | GI50 (UACC-62 melanoma)
1 | CC(=O)CC(=O)N1CCSC1=S | > 10 µM | > 10 µM | > 10 µM | > 10 µM | > 10 µM | > 10 µM | > 10 µM | > 10 µM | > 10 µM | > 10 µM | – | – | – | – | – | – | – | – | –
2 | COc1cc2nc(N3CCC[C@H](NC4=CC(=O)c5ccccc5C4=O)C3)nc(N)c2cc1OC | 3.3 µM | 1.42 µM | 3.77 µM | 4.64 µM | 4.12 µM | – | 3.32 µM | 4.01 µM | 4.81 µM | 4.72 µM | 1.63 µM | 0.348 µM | 1.94 µM | 1.97 µM | 2.41 µM | 1.5 µM | 1.96 µM | 1.64 µM | 2.14 µM
3 | O=CC(O)C(O)C(O)C(O)COC(=O)NCCCCC(=O)C(F)(F)C(F)(F)C(F)(F)C(F)(F)C(F)(F)C(F)(F)C(F)(F)F (centres undefined) | 47.6 µM | 58.5 µM | 39.2 µM | 64.6 µM | > 100 µM | 31.8 µM | 42.1 µM | 67.6 µM | 33.4 µM | 35.1 µM | – | – | – | – | – | – | – | – | –
4 | CC(C)(C)c1cc(OCc2nnc3sc(Cc4ccccc4)nn23)c(Cl)cc1OCc1nnc2sc(Cc3ccccc3)nn12 | 39 µM | > 100 µM | > 100 µM | > 100 µM | 82.9 µM | 35.4 µM | > 100 µM | 42.5 µM | 75.2 µM | 49.8 µM | – | – | – | – | – | – | – | – | –
5 | CCOC(=O)CCc1cn2cc(Br)nc(OC)c2n1 | > 100 µM | > 100 µM | > 100 µM | > 100 µM | > 100 µM | – | > 100 µM | > 100 µM | > 100 µM | > 100 µM | – | – | – | – | – | – | – | – | –
6 | O=c1cc(N2CCOCC2)n2c(ccc3ccccc32)n1 | > 100 µM | > 100 µM | > 100 µM | > 100 µM | > 100 µM | > 100 µM | > 100 µM | – | > 100 µM | > 100 µM | – | – | – | – | – | – | – | – | –
7 | C/C(=N\Nc1nc2ccccc2[nH]1)c1ncccn1 | > 29.2 µM | > 100 µM | 0.0543 µM | > 100 µM | > 78.1 µM | 1.93 µM | > 100 µM | > 100 µM | 1.74 µM | 2.88 µM | – | – | – | – | – | – | – | – | –
8 | O=[N+]([O-])c1ccc(N2N=C(c3c(O)ccc4ccccc34)CC2c2ccc(Cl)cc2)c([N+](=O)[O-])c1 (centres undefined) | 56.2 µM | 45.6 µM | 91.7 µM | > 100 µM | > 100 µM | > 100 µM | > 100 µM | > 100 µM | 37.2 µM | 60.4 µM | – | – | – | – | – | – | – | – | –
9 | Oc1ccc(Cl)cc1-c1cc(-c2ccccc2)nc(=S)[nH]1 | 85.8 µM | > 100 µM | > 100 µM | > 100 µM | 68.7 µM | 47.6 µM | > 100 µM | > 100 µM | > 100 µM | – | – | – | – | – | – | – | – | – | –
10 | Cn1c2ccc(Cl)cc2c2ccc3c(c21)C(=O)C=CC3=O | > 10 µM | > 10 µM | > 10 µM | > 10 µM | > 10 µM | > 10 µM | > 10 µM | > 10 µM | > 10 µM | > 10 µM | – | – | – | – | – | – | – | – | –
11 | S=C1C(=Nc2ccccc2)N(c2ccccc2)/C(=N\c2cccc[n+]2Cc2ccccc2)N1c1ccccc1 | 31.3 µM | > 100 µM | 34 µM | > 100 µM | 99.8 µM | 41.9 µM | 35.7 µM | 50 µM | 23.9 µM | 25 µM | – | – | – | – | – | – | – | – | –
12 | Cc1c(OCc2cccc3ccccc23)ccc2c(=O)cc(SCCN3CCOCC3)oc12 | > 100 µM | > 100 µM | > 100 µM | > 100 µM | > 100 µM | > 100 µM | > 100 µM | > 100 µM | > 100 µM | > 100 µM | – | – | – | – | – | – | – | – | –
13 | COC(=O)/C=C\n1nc(Br)c(=O)[nH]c1=O | > 100 µM | > 100 µM | > 100 µM | > 100 µM | > 100 µM | > 100 µM | > 100 µM | > 100 µM | – | – | – | – | – | – | – | – | – | – | –
14 | CSc1nnc(SCc2nn3c(=O)cc(C)nc3s2)s1 | > 100 µM | > 100 µM | > 100 µM | > 100 µM | > 100 µM | > 100 µM | > 100 µM | > 100 µM | > 100 µM | > 100 µM | – | – | – | – | – | – | – | – | –
15 | Cc1nc2ccc(Br)cc2c(=O)n1-c1ccc(N)cc1 | > 100 µM | > 100 µM | > 100 µM | > 100 µM | > 100 µM | > 100 µM | > 100 µM | > 100 µM | > 100 µM | > 100 µM | – | – | – | – | – | – | – | – | –
16 | Cc1ccc(N=C/C=C(\Nc2ccc(C)cc2)c2ccc3ccccc3c2)cc1 | 2.12 µM | 2.72 µM | 3.45 µM | 36.8 µM | 6.82 µM | 27.6 µM | 24.9 µM | 13.8 µM | 2.99 µM | 1.3 µM | – | – | – | – | – | – | – | – | –
17 | [N-]=[N+]=Nc1nc2ccccc2c(N=[N+]=[N-])c1Cl | > 100 µM | > 100 µM | > 100 µM | > 100 µM | > 100 µM | > 100 µM | > 100 µM | > 100 µM | > 100 µM | > 100 µM | – | – | – | – | – | – | – | – | –
18 | CC(=O)OCC1OC(SC2=NC(=O)CS2)C(OC(C)=O)C(OC(C)=O)C1OC(C)=O (centres undefined) | > 100 µM | > 100 µM | > 100 µM | > 100 µM | > 100 µM | – | > 100 µM | > 100 µM | – | > 100 µM | – | – | – | – | – | – | – | – | –
19 | COC(=O)c1c2c(cc3c1CC1(Cc4cc5c(c(C)c4C1)CCC5)C3)CCC2 (centres undefined) | > 100 µM | > 100 µM | > 100 µM | > 100 µM | > 100 µM | > 100 µM | > 100 µM | > 100 µM | > 100 µM | – | – | – | – | – | – | – | – | – | –
20 | O=c1[nH]n(CCc2ccccc2CCl)c2ccc([N+](=O)[O-])cc12 | > 100 µM | > 100 µM | > 100 µM | > 100 µM | > 100 µM | > 100 µM | > 100 µM | > 100 µM | > 100 µM | > 100 µM | – | – | – | – | – | – | – | – | –
21 | C=C(Br)C[N+]12CN3CN(CN(C3)C1)C2 | > 100 µM | > 100 µM | > 100 µM | > 100 µM | – | > 100 µM | > 100 µM | > 100 µM | > 100 µM | > 100 µM | – | – | – | – | – | – | – | – | –

— PubChem BioAssay (NCI)
